Test results taken from patent US9745324B2, “Iminothiadiazepane dioxide compounds as BACE inhibitors, compositions, and their use” (Merck Sharp & Dohme Corp., priority 2013, dated 2017).
Like-named read-outs stand apart in the source and are kept apart here.

Experiments:
[1] = molecular target: soluble human BACE1 catalytic domain (Homo sapiens (Human), UniProt P56817); assay: BACE1 HTRF FRET Assay; format: biochemical; settings: Ki calculated from IC50 using the Cheng-Prusoff equation; QSY7-APPswe-Eu substrate, pH 5.0
Source text: Reagents: Na^+-Acetate pH 5.0; 1% Brij-35; Glycerol; Dimethyl Sulfoxide (DMSO); Recombinant human soluble BACE1 catalytic domain (>95% pure); APP Swedish mutant peptide substrate (QSY7-APP^swe-Eu): QSY7-[…]-Europium-amide (SEQ ID 1).
A homogeneous time-resolved FRET assay can be used to determine IC50 values for inhibitors of the soluble human BACE1 catalytic domain. This assay monitors the increase of 620 nm fluorescence that resulted from BACE1 cleavage of an APPswedish APP^swe mutant peptide FRET substrate (QSY7-[…]-Europium-amide (SEQ ID 1)). This substrate contains an N-terminal QSY7 moiety that serves as a quencher of the C-terminal Europium fluorophore (620 nm Em). […] Inhibition of BACE1 cleavage of the QSY7-APP^swe-Eu substrate by inhibitors is manifested as a suppression of 620 nm fluorescence.
Varying concentrations of inhibitors at 3× the final desired concentration in a volume of 10 ul are preincubated with purified human BACE1 catalytic domain (3 nM in 10 μl) for 30 minutes at 30° C. in reaction buffer containing 20 mM Na-Acetate pH 5.0, 10% glycerol, 0.1% Brij-35 and 7.5% DSMO. Reactions are initiated by addition of 10 μl of 600 nM QSY7-APP^swe-Eu substrate (200 nM final) to give a final reaction volume of 30 μl in a 384 well Nunc HTRF plate. The reactions are incubated at 30° C. for 1.5 hours. The 620 nm fluorescence is then read on a Rubystar HTRF plate reader (BMG Labtechnologies) using a 50 millisecond delay followed by a 400 millisecond acquisition time window. Inhibitor IC50 values are derived from non-linear regression analysis of concentration response curves.

[2] = molecular target: purified human autoBACE-2 (Homo sapiens, UniProt Q9Y5Z0); assay: BACE-2 Assay (BACE-HTRF assay); format: biochemical; settings: Ki calculated from IC50 using the Cheng-Prusoff equation, pH 5.0, read-out: BACE2 Ki
Experimental: DMSO is present at 5% final concentration in the assay. Following laser excitation of sample wells at 320 nm, the fluorescence signal at 620 nm is collected for 400 ms following a 50 μs delay on a RUBYstar HTRF plate reader (BMG Labtechnologies). Raw RFU data is normalized to maximum (1.0 nM BACE/DMSO) and minimum (no enzyme/DMSO) RFU values. […] The Ki values are calculated from the IC50 using the Cheng-Prusoff equation.

[3] = QSY7-EISEVNLDAEFC-Eu-amide substrate

Sequence of purified human autoBACE-2 (Q9Y5Z0 63-518 limits assumed): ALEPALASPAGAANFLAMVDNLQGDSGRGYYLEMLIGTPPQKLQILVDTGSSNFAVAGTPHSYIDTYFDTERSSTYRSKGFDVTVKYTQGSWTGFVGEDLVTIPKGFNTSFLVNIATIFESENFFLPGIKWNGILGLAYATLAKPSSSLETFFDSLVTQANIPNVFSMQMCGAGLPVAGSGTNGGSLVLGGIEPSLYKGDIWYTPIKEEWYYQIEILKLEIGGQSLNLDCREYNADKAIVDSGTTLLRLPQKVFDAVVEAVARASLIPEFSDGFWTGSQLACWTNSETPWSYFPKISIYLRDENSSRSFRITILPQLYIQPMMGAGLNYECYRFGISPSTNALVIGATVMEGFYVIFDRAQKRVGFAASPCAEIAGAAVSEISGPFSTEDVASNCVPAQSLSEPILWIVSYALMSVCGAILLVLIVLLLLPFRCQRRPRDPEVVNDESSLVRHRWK
Sequence of soluble human BACE1 catalytic domain (P56817 75-416): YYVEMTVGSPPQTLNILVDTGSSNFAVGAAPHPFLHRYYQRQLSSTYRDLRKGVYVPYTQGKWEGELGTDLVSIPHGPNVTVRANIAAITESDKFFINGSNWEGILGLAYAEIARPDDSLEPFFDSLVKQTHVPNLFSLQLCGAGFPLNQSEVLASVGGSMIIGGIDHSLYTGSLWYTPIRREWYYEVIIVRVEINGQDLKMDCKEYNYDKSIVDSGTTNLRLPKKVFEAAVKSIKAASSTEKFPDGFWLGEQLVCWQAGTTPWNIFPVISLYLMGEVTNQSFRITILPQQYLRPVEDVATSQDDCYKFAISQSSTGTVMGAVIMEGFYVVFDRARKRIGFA

SMILES | Ki [1] | Ki [2, 3] | Ki ([2]; QSY7-[…]-Eu-amide substrate)
COCCC(=O)Nc1ccc(F)c([C@]2(C)CN(C)S(=O)(=O)C(C)(C)C(=N)N2)c1 [Example 24, N-{4-fluoro-3-[(4R)-6-imino-2,4,7,7-tetramethyl-1,1-dioxido-1,2,5-thiadiazepan-4-yl]phenyl}-3-methoxypropanamide] | > 9760 nM | 4090 nM | 
COCC(=O)Nc1ccc(F)c([C@]2(C)CN(C)S(=O)(=O)C(C)(C)C(=N)N2)c1 [Example 25, N-{4-fluoro-3-[(4R)-6-imino-2,4,7,7-tetramethyl-1,1-dioxido-1,2,5-thiadiazepan-4-yl]phenyl}-2-methoxyacetamide] | 756 nM | 122 nM | 
CN1C[C@@](C)(c2cc(NC(=O)c3cn(C)nc3C(F)(F)F)ccc2F)NC(=N)C(C)(C)S1(=O)=O [Example 26, N-{4-fluoro-3-[(4R)-6-imino-2,4,7,7-tetramethyl-1,1-dioxido-1,2,5-thiadiazepan-4-yl]phenyl}-1-methyl-3-(trifluoromethyl)-1H-pyrazole-4-carboxamide] | 8790 nM | 6510 nM | 
CN1C[C@@](C)(c2cc(NC(=O)c3cn4ccsc4n3)ccc2F)NC(=N)C(C)(C)S1(=O)=O [Example 27, N-{4-fluoro-3-[(4R)-6-imino-2,4,7,7-tetramethyl-1,1-dioxido-1,2,5-thiadiazepan-4-yl]phenyl}imidazo[2,1-b][1,3]thiazole-6-carboxamide] | 285 nM | 46 nM | 
CN1C[C@@](C)(c2cc(NC(=O)C(F)F)ccc2F)NC(=N)C(C)(C)S1(=O)=O [Example 28, 2,2-difluoro-N-{4-fluoro-3-[(4R)-6-imino-2,4,7,7-tetramethyl-1,1-dioxido-1,2,5-thiadiazepan-4-yl]phenyl}acetamide] | 1200 nM | 354 nM | 
CO[C@H](C)C(=O)Nc1ccc(F)c([C@]2(C)CN(C)S(=O)(=O)C(C)(C)C(=N)N2)c1 [Example 29, (2R)-N-{4-fluoro-3-[(4R)-6-imino-2,4,7,7-tetramethyl-1,1-dioxido-1,2,5-thiadiazepan-4-yl]phenyl}-2-methoxypropanamide] | 4680 nM | 798 nM | 
CN1C[C@@](C)(c2cc(NC(=O)CC3CC3)ccc2F)NC(=N)C(C)(C)S1(=O)=O [Example 30, 2-cyclopropyl-N-{4-fluoro-3-[(4R)-6-imino-2,4,7,7-tetramethyl-1,1-dioxido-1,2,5-thiadiazepan-4-yl]phenyl}acetamide] | > 9760 nM | 2190 nM | 
CN1C[C@@](C)(c2cc(NC(=O)c3ncc(C(F)(F)F)cn3)ccc2F)NC(=N)C(C)(C)S1(=O)=O [Example 31, N-{4-fluoro-3-[(4R)-6-imino-2,4,7,7-tetramethyl-1,1-dioxido-1,2,5-thiadiazepan-4-yl]phenyl}-5-(trifluoromethyl)pyrimidine-2-carboxamide] | 189 nM | 202 nM | 
Cc1nc(C(=O)Nc2ccc(F)c([C@]3(C)CN(C)S(=O)(=O)C(C)(C)C(=N)N3)c2)c(C)o1 [Example 32, N-{4-fluoro-3-[(4R)-6-imino-2,4,7,7-tetramethyl-1,1-dioxido-1,2,5-thiadiazepan-4-yl]phenyl}-2,5-dimethyl-1,3-oxazole-4-carboxamide] | 165 nM | 54 nM | 
CN1C[C@@](C)(c2cc(NC(=O)C3CC3)ccc2F)NC(=N)C(C)(C)S1(=O)=O [Example 33, N-{4-fluoro-3-[(4R)-6-imino-2,4,7,7-tetramethyl-1,1-dioxido-1,2,5-thiadiazepan-4-yl]phenyl}cyclopropanecarboxamide] | 4350 nM | 1030 nM | 
CO[C@@H](C)C(=O)Nc1ccc(F)c([C@]2(C)CN(C)S(=O)(=O)C(C)(C)C(=N)N2)c1 [Example 34, (2S)-N-{4-fluoro-3-[(4R)-6-imino-2,4,7,7-tetramethyl-1,1-dioxido-1,2,5-thiadiazepan-4-yl]phenyl}-2-methoxypropanamide] | 3060 nM | 1120 nM | 
CC(=O)Nc1ccc(F)c([C@]2(C)CN(C)S(=O)(=O)C(C)(C)C(=N)N2)c1 [Example 35, N-{4-fluoro-3-[(4R)-6-imino-2,4,7,7-tetramethyl-1,1-dioxido-1,2,5-thiadiazepan-4-yl]phenyl}acetamide] | 5930 nM | 917 nM | 
C#CCOc1ccc(C(=O)Nc2ccc(F)c([C@]3(C)CN(C)S(=O)(=O)C(C)(C)C(=N)N3)c2)nc1 [Example 36, N-{4-fluoro-3-[(4R)-6-imino-2,4,7,7-tetramethyl-1,1-dioxido-1,2,5-thiadiazepan-4-yl]phenyl}-5-(prop-2-yn-1-yloxy)pyridine-2-carboxamide] | 15 nM | 195 nM | 
CN1C[C@@](C)(c2cc(NC(=O)c3cnc(C(F)(F)F)cn3)ccc2F)NC(=N)C(C)(C)S1(=O)=O [Example 37, N-{4-fluoro-3-[(4R)-6-imino-2,4,7,7-tetramethyl-1,1-dioxido-1,2,5-thiadiazepan-4-yl]phenyl}-5-(trifluoromethyl)pyrazine-2-carboxamide] | 153 nM | 361 nM | 
CN1C[C@@](C)(c2cc(NC(=O)c3ccc(OCF)cn3)ccc2F)NC(=N)C(C)(C)S1(=O)=O [Example 38, N-{4-fluoro-3-[(4R)-6-imino-2,4,7,7-tetramethyl-1,1-dioxido-1,2,5-thiadiazepan-4-yl]phenyl}-5-(fluoromethoxy)pyridine-2-carboxamide] | 37 nM | 46 nM | 
C#CCOc1cnc(C(=O)Nc2ccc(F)c([C@]3(C)CN(C)S(=O)(=O)C(C)(C)C(=N)N3)c2)cn1 [Example 39, N-{4-fluoro-3-[(4R)-6-imino-2,4,7,7-tetramethyl-1,1-dioxido-1,2,5-thiadiazepan-4-yl]phenyl}-5-(prop-2-yn-1-yloxy)pyrazine-2-carboxamide] | 2.3 nM | 34.3 nM | 
CN1C[C@@](C)(c2cc(OCc3ccc(C#N)cc3)ccc2F)NC(=N)C(C)(C)S1(=O)=O [Example 40, (R)-4-((4-fluoro-3-(6-imino-2,4,7,7-tetramethyl-1,1-dioxido-1,2,5-thiadiazepan-4-yl)phenoxy)methyl)benzonitrile] | 651 nM |  | 4050 nM
CN1C[C@@](C)(c2cc(Nc3nccc4cc(C#N)cnc34)ccc2F)NC(=N)C(C)(C)S1(=O)=O [Example 41, (R)-8-((4-fluoro-3-(6-imino-2,4,7,7-tetramethyl-1,1-dioxido-1,2,5-thiadiazepan-4-yl)phenyl)amino)-1,7-naphthyridine-3-carbonitrile] | 20 nM |  | 16 nM
CN1C[C@@](C)(c2cc(Nc3nccc4cc(Br)cnc34)ccc2F)NC(=N)C(C)(C)S1(=O)=O [Example 42, (R)-4-(5-((3-bromo-1,7-naphthyridin-8-yl)amino)-2-fluorophenyl)-6-imino-2,4,7,7-tetramethyl-1,2,5-thiadiazepane 1,1-dioxide] | 18 nM |  | 9 nM
COc1cnc2c(Nc3ccc(F)c([C@]4(C)CN(C)S(=O)(=O)C(C)(C)C(=N)N4)c3)nccc2c1 [Example 43, (R)-4-(2-fluoro-5-((3-methoxy-1,7-naphthyridin-8-yl)amino)phenyl)-6-imino-2,4,7,7-tetramethyl-1,2,5-thiadiazepane 1,1-dioxide] | 209 nM |  | 240 nM
CN1C[C@@](C)(c2cc(Nc3nccn4ccnc34)ccc2F)NC(=N)C(C)(C)S1(=O)=O [Example 44, (R)-4-(2-fluoro-5-(imidazo[1,2-a]pyrazin-8-ylamino)phenyl)-6-imino-2,4,7,7-tetramethyl-1,2,5-thiadiazepane 1,1-dioxide] | 1350 nM |  | 270 nM
